According to PMC7184563 (Journal of Medicinal Chemistry, 2020):

Legend:
[1] = type: in vivo, mouse; details: 1 mg/kg iv and 5 mg/kg po, after dosing and 24 h after dose
[2] = molecular target: BCL6 levels in tumor (Homo sapiens, UniProt P41182); experiment: PK/PD study in OCI-Ly1 DLBCL xenograft model; details: single dose 15 mg/kg po
[3] = PK study in SCID mouse, po; type: in vivo; details: 15 mg/kg po
[4] = molecular target: BCL6 BTB (Homo sapiens, UniProt P41182); experiment: biochemical; details: BCL6 IC50 (FP), geometric mean
[5] = HPLC solubility assay; type: physicochemical; details: kinetic solubility by HPLC in PBS buffer, 1% DMSO, pH 7.4
[6] = PAMPA permeability; type: in vitro ADME
[7] = Microsomal clearance; type: in vitro ADME
[8] = Microsomal clearance assay, mouse liver microsomes; type: in vitro ADME
[9] = molecular target: T1, BCL6 (Homo sapiens, UniProt P41182); type: cell-based; details: SU-DHL-4
[10] = molecular target: T1, BCL6; experiment: Western blot of BCL6 protein levels, SU-DHL-4 cells; type: cell-based; details: 4 h at 37 °C
[11] = molecular target: T1, BCL6; experiment: Western blot of BCL6 protein levels, OCI-Ly1 cells; type: cell-based; details: 4 h at 37 °C

## C[C@@H]1CN(c2ncc(Cl)c(Nc3ccc4c(c3)n(CCC(C)(C)O)c(=O)n4C)n2)C[C@H](C)C1(F)F [Compound 1, 5-((5-Chloro-2-((3R,5S)-4,4-difluoro-3,5-dimethylpiperidin-1-yl)pyrimidin-4-yl)amino)-3-(3-hydroxy-3-methylbutyl)-1-methyl-1,3-dihydro-2H-benzo[d]imidazol-2-one]
[1]
  appearance of mice after dosing: appeared normal
[2]
  free concentration that leads to degradation of BCL6 in tumor: > 1 nM
  time of maximal effect on tumor BCL6: ~4 h
[2]; OCI-Ly1 xenograft, up to 10 h after dosing
  levels of BCL6 in the tumor: clear decrease in levels of BCL6 in the tumor
[2]; SCID mice
  adverse events: No visible adverse events were observed
[3]
  time mean total blood concentration above the desired concentration: approximately 10 h

## N#Cc1c(NCc2ccccc2)ccnc1Cl [Compound 2]
[4]
  IC50: ~100 µM

## Cn1c(=O)n(C)c2cc(Nc3cc(SCc4ccccc4)ncn3)ccc21 [Compound 3]
[4]
  IC50: ~100 µM

## Cn1c(=O)n(C)c2cc(Nc3ccnc(Cl)c3C#N)ccc21 [Compound 6, 2-Chloro-4-((1,3-dimethyl-2-oxo-2,3-dihydro-1H-benzo[d]imidazol-5-yl)amino)nicotinonitrile]
[5]
  Aq. sol. (HPLC, shown in parentheses): (16) μM
[6]
  PAMPA permeability (in words): high PAMPA permeability
[7]
  microsomal clearance (in words): Low microsomal clearance

## Cn1c(=O)n(CCC(C)(C)O)c2cc(Nc3ccnc(Cl)c3C#N)ccc21 [Compound 17a, 2-Chloro-4-((3-(3-hydroxy-3-methylbutyl)-1-methyl-2-oxo-2,3-dihydro-1H-benzo[d]imidazol-5-yl)amino)nicotinonitrile]
[5]
  Aq. sol. (HPLC, shown in parentheses): (25) μM

## CC1CCCN(c2ncc(Cl)c(Nc3ccc4c(c3)n(CCC(C)(C)O)c(=O)n4C)n2)C1 (centres unmarked) [Compound 24a, 5-((5-Chloro-2-(3-methylpiperidin-1-yl)pyrimidin-4-yl)amino)-3-(3-hydroxy-3-methylbutyl)-1-methyl-1,3-dihydro-2H-benzo[d]imidazol-2-one]
[8]
  metabolism in mouse microsomes (in words): rapid metabolism
[9]
  BCL6 degradation in the IF assay (in words): identified as degraders

## C[C@@H]1C[C@H](C)CN(c2ncc(Cl)c(Nc3ccc4c(c3)n(CCC(C)(C)O)c(=O)n4C)n2)C1 [Compound 24b, 5-((5-Chloro-2-((3S,5R)-3,5-dimethylpiperidin-1-yl)pyrimidin-4-yl)amino)-3-(3-hydroxy-3-methylbutyl)-1-methyl-1,3-dihydro-2H-benzo[d]imidazol-2-one]
[10]
  BCL6 protein levels by Western blot, SU-DHL-4: concentration-dependent reduction in BCL6 protein levels
[11]
  BCL6 protein levels by Western blot, OCI-Ly1: concentration-dependent reduction in BCL6 protein levels
[8]
  metabolism in mouse microsomes (in words): rapid metabolism
[9]
  BCL6 degradation in the IF assay (in words): identified as degraders

## C[C@@H]1CN(c2ncc(Cl)c(Nc3ccc4c(c3)n(CCC(C)(C)O)c(=O)n4C)n2)C[C@H](C)O1 [Compound 25a, 5-((5-Chloro-2-((2R,6S)-2,6-dimethylmorpholino)pyrimidin-4-yl)amino)-3-(3-hydroxy-3-methylbutyl)-1-methyl-1,3-dihydro-2H-benzo[d]imidazol-2-one]
[9]
  BCL6 degradation in the IF assay (in words): not capable of inducing BCL6 degradation

## C[C@@H]1CN(c2ncc(Cl)c(Nc3ccc4c(c3)n(CCC(C)(C)O)c(=O)n4C)n2)C[C@H](C)N1C [Compound 25c, 5-((5-Chloro-2-((3S,5R)-3,4,5-trimethylpiperazin-1-yl)pyrimidin-4-yl)amino)-3-(3-hydroxy-3-methylbutyl)-1-methyl-1,3-dihydro-2H-benzo[d]imidazol-2-one]
[9]
  BCL6 degradation in the IF assay (in words): not capable of inducing BCL6 degradation

## C[C@@H]1C[C@H](C)CN(c2cc(Nc3ccc4c(c3)n(CCC(C)(C)O)c(=O)n4C)c(Cl)cn2)C1 [Compound 26b, 5-((5-Chloro-2-((3S,5R)-3,5-dimethylpiperidin-1-yl)pyridin-4-yl)amino)-3-(3-hydroxy-3-methylbutyl)-1-methyl-1,3-dihydro-2H-benzo[d]imidazol-2-one]
[9]
  BCL6 degradation in the IF assay (in words): identified as degraders

## COCC1CN(c2ncc(Cl)c(Nc3ccc4c(c3)n(CCC(C)(C)O)c(=O)n4C)n2)CCC1(F)F (centres unmarked) [Compound 27f, 5-((5-Chloro-2-(4,4-difluoro-3-(methoxymethyl)piperidin-1-yl)pyrimidin-4-yl)amino)-3-(3-hydroxy-3-methylbutyl)-1-methyl-1,3-dihydro-2H-benzo[d]imidazol-2-one]
[9]
  BCL6 degradation in the IF assay (in words): reduced degradation

## Cn1c(=O)n(CCC(C)(C)O)c2cc(Nc3nc(N4CCCC(C#N)C4)ncc3Cl)ccc21 (centres unmarked) [Compound 27g, 1-(5-Chloro-4-((3-(3-hydroxy-3-methylbutyl)-1-methyl-2-oxo-2,3-dihydro-1H-benzo[d]imidazol-5-yl)amino)pyrimidin-2-yl)piperidine-3-carbonitrile]
[9]
  BCL6 degradation in the IF assay (in words): did not enable degradation

## Cn1c(=O)n(CCC(C)(C)O)c2cc(Nc3nc(N4CCC(C(F)(F)F)CC4)ncc3Cl)ccc21 [Compound 27h, 5-((5-Chloro-2-(4-(trifluoromethyl)piperidin-1-yl)pyrimidin-4-yl)amino)-3-(3-hydroxy-3-methylbutyl)-1-methyl-1,3-dihydro-2H-benzo[d]imidazol-2-one]
[9]
  BCL6 degradation in the IF assay (in words): loss of degradation activity

## Cn1c(=O)n(CCC(C)(C)O)c2cc(Nc3nc(N4CC5CCC(C4)C5(F)F)ncc3Cl)ccc21 [Compound 28a, 5-((5-Chloro-2-(8,8-difluoro-3-azabicyclo[3.2.1]octan-3-yl)pyrimidin-4-yl)amino)-3-(3-hydroxy-3-methylbutyl)-1-methyl-1,3-dihydro-2H-benzo[d]imidazol-2-one]
[9]
  BCL6 degradation in the IF assay (in words): loss of degradation activity

## Cn1c(=O)n(CCC(C)(C)O)c2cc(Nc3nc(N4C5CCC4CC(F)(F)C5)ncc3Cl)ccc21 [Compound 28b, 5-((5-Chloro-2-(3,3-difluoro-8-azabicyclo[3.2.1]octan-8-yl)pyrimidin-4-yl)amino)-3-(3-hydroxy-3-methylbutyl)-1-methyl-1,3-dihydro-2H-benzo[d]imidazol-2-one]
[9]
  BCL6 degradation in the IF assay (in words): loss of degradation activity
